Test results published in patent publication US12473259B2, “Anhydrous crystal of monosodium n-(2-ethylsulfonylamino-5-trifluoromethyl-3-pyridyl)cyclohexane carboxamide” (ISHIHARA SANGYO KAISHA, LTD., priority 2019, dated 2025).

Legend:
Type in all cases: physicochemical
[1] = Tapped density and bulk density, powder tester (Japanese Pharmacopoeia Method 3); settings: 100 mL cylindrical container; for Tapped density: 100 times per 3 minutes
Procedure: Regarding the anhydrous crystal obtained in Production Example 1 and the monohydrous crystal as a raw material, the bulk density and the tapped density were measured with a powder tester type A.B.D-72 (TSUTSUI SCIENTIFIC INSTRUMENTS Co., Ltd.) in accordance with of Method 3 (measuring vessel) of Determination of Bulk Density and Method 3 of Determination of Tapped Density mentioned in the Japanese Pharmacopoeia, Seventeenth Edition. Specifically, regarding the bulk density, an excess of a sample was freely fallen through the apparatus into a cylindrical container (volume of 100 mL, inner diameter of 5.05 cm) until a container overflowed. Then, the edge of a spatula standing vertically in contact with the top surface of the container was moved smoothly, and an excess of the sample was carefully slashed off from the top surface of the container. The bulk density was calculated by dividing the mass (g) of the sample in the container by a volume of 100 mL. The tapped density was, specifically, measured as a density when the sample was filled in a cylindrical container (volume of 100 mL, inner diameter of 5.05 cm) in the same manner as for the bulk density measurement and was fallen using the apparatus at a rate of 100 times per 3 minutes.

[2] = BET specific surface area by nitrogen adsorption method; settings: BET multipoint method, nitrogen gas
Procedure: The specific surface area was measured by a nitrogen adsorption method using Flow sorb II 2300 (Shimadzu Corporation). Specifically, the BET specific surface area was measured by a BET multipoint method by nitrogen adsorption under the following conditions: • Sample amount: 0.2 g • Deaeration condition: 150° C. (anhydrous), 80° C. (monohydrous) • Adsorption gas: nitrogen gas

[3] = Observation of particle shape by scanning electron microscopy; settings: SEM micrograph
From the text: Micrographs of particles of the anhydrous crystal of the present invention and the monohydrous crystal were taken using scanning electron microscopy (SEM) (Hitachi, Ltd., S-3200N).

[4] = Long diameter, short diameter and aspect ratio by particle shape image analyzer PITA-3; settings: for Aspect ratio (d50): long diameter (d50)/short diameter (d50)
Procedure: Regarding the anhydrous crystal obtained in Production Example 1 and the monohydrous crystal as a raw material, the long diameter and the short diameter were measured using a particle shape image analyzer PITA-3 (SEISHIN ENTERPRISE Co., Ltd.), and the aspect ratio was calculated.
The longest diameter in the particle was regarded as the long diameter, and the shortest diameter in the particle was regarded as the short diameter. The aspect ratio was calculated by the following formula: Aspect ratio=long diameter/short diameter
Specifically, measurement was performed under the following conditions:
Carrier liquid: n-hexane+lecithin
Dispersion condition: ultrasonic wave for 5 minutes
Flow rate of first carrier liquid: 500.00 μL/second
Flow rate of second carrier liquid: 500.00 μL/second
Flow rate of sample dispersion liquid: 0.42 μL/second
Observation magnification: 10 times
Light control filter: None
Number of particles observed: 6,992 (anhydrous crystal) or 9,628 (monohydrous crystal)

[5] = Measurement of solubility in distilled water (HPLC); settings: room temperature, shaken 1 hour, saturated solution
Procedure: After 10 mL of distilled water was put into 0.5 g of the anhydrous crystal obtained in Production Example 1 or the monohydrous crystal as a raw material, the solution was horizontally shaken with a shaker (manufactured by TAITEC CORPORATION, STRONG SHAKER SR-2DS) at room temperature and at a shaking speed of 150 strokes/min and a shaking width of 4 cm/stroke for 1 hour. Thereafter, a precipitate was confirmed to be remained, and centrifugation (3,000 rpm×10 minutes) was performed to take a supernatant, followed by filtration using a membrane filter to obtain a supernatant of a saturated solution. 2 mL of the supernatant of the saturated solution was weighed in a 20 mL volumetric flask to make a constant volume with a mobile phase, and this was used as a sample solution, followed by measurement of solubility under the following HPLC conditions: • Analyzer: HPLC ACQUITY Arc system (manufactured by Waters K. K.) • Mobile phase: acetonitrile/water/acetic acid=50/49.5/0.5, v/v • Detector: ultraviolet spectrophotometer λ=276 nm (1 Au/V) • Column: Nucleosil 5 C18 (4.6 φ×250 mm) (manufactured by MACHEREY-NAGEL GmbH & Co. KG) • Column temperature: 50° C. • Flow rate: 1.075 ml/min • Injection volume: 20 μL • Measurement time: 40 minutes

[6] = Angle of repose (Japanese Pharmacopoeia); settings: compared with the monohydrous crystal
Procedure: Regarding the particles of the anhydrous crystal obtained in Production Example 1 and the monohydrous crystal, the angle of repose was measured in accordance with Angle of repose mentioned in the Japanese Pharmacopoeia, Seventeenth Edition.

| SMILES | Bulk density [1] | Tapped density [1] | Specific surface area [2] | Particle shape [3] | Long diameter (d50) [4] | Short diameter (d50) [4] | Aspect ratio (d50) [4] | Solubility [5] | Angle of repose [6] | solubility at 1 h ([5]; water, thermodynamic from solid) |
| --- | --- | --- | --- | --- | --- | --- | --- | --- | --- | --- |
| CCS(=O)(=O)Nc1ncc(C(F)(F)F)cc1NC(=O)C1CCCCC1.[Na] [Anhydrous crystal, monosodium N-(2-ethylsulfonylamino-5-trifluoromethyl-3-pyridyl)cyclohexane carboxamide] | 0.289 g/mL | 0.367 g/mL | 3.38 m^2/g | massive | 6.09 μm | 3.34 μm | 1.82 | 204 µg/mL | smaller than the angle of repose of the particle of the monohydrous crystal |  |
| CCS(=O)(=O)Nc1ncc(C(F)(F)F)cc1NC(=O)C1CCCCC1.[Na] [Monohydrous crystal, monosodium N-(2-ethylsulfonylamino-5-trifluoromethyl-3-pyridyl)cyclohexane carboxamide] | 0.18 g/mL | 0.207 g/mL | 4.36 m^2/g | needle like | 15.80 μm | 3.19 μm | 4.95 |  |  | 160 µg/mL |
